This note sets out measurements from ChEMBL document CHEMBL1129009, “New aza-thioxanthones: Synthesis and cytotoxicity” (Bioorg Med Chem Lett, 1996).

Holding throughout (type): functional, cell-based
Holding throughout (conditions): Homo sapiens

For test [1], the system named is MCF7. As to the kind of experiment: Compound was evaluated for cytotoxicity against breast cancer MCF-7 cell lines.
Test [2] has as its system MOLT-4. Put plainly: Compound was evaluated for cytotoxicity against leukemic MOLT-4 cell lines.
Test [3] has as its system HOP-92. Put plainly: Compound was evaluated for cytotoxicity against non small lung cancer HOP-92 cell line.
Test [4] concerns SW-620. As to the kind of experiment: Compound was evaluated for cytotoxicity against colon SW-620 cell line.
The subject of test [5] is SK-OV-3. As to the kind of experiment: Compound was evaluated for cytotoxicity against ovarian carcinoma […] cell line.

In the case of `O=C(CN1CCCCC1)Nc1ccc2sc3ccccc3c(=O)c2n1`, the IC50 (as a rule, the midpoint of a concentration-inhibition curve) in test [1] was determined as 19.4 µM; in test [2], 2.69 µM; in test [3], 15.1 µM; in test [4] it was 5.42 µM; in test [5], 21.4 µM.
For `O=C(CCN1CCOCC1)Nc1ccc2sc3ccccc3c(=O)c2n1`, the IC50 in test [1] is 49.8 µM; in test [3], 45.3 µM; in test [4], 27.3 µM; in test [5], 47.6 µM.
As to `O=C(CN1CCCC1)Nc1ccc2sc3ccccc3c(=O)c2n1`, the IC50 in test [1] came out at 27.2 µM; in test [2], 1.91 µM; in test [3], 27.3 µM; in test [4] it was 4.96 µM; in test [5], 20.6 µM.
Consider `CCN(CC)CCC(=O)Nc1ccc2sc3ccccc3c(=O)c2n1`, for which the IC50 in test [1] came out at 13.3 µM; in test [2] it was 7.77 µM; in test [4], 12 µM; in test [5], 20.5 µM.
On to `O=C(CCN1CCCCC1)Nc1ccc2sc3ccccc3c(=O)c2n1`, for which the half-maximal inhibitory concentration (IC50) in test [1] amounted to 15.9 µM; in test [2], 2.56 µM; in test [3], 0.41 µM; in test [4], 8.31 µM; in test [5] it was 23.2 µM.
With `O=C(CCN1CCCC1)Nc1ccc2sc3ccccc3c(=O)c2n1`, the IC50 stood at 17 µM in test [1]; 3.42 µM in test [2]; 18.1 µM in test [3]; 15.5 µM in test [4]; 5.23 µM in test [5].
